According to ChEMBL document CHEMBL1151514, “Imetit and N-methyl derivatives. The transition from potent agonist to antagonist at histamine H3 receptors.1” (Bioorg Med Chem Lett, 1992):

What was measured:
Histamine H3 receptor [1] = target: T1, Histamine H3 receptor (Rattus norvegicus, UniProt Q9QYN8); assay: The compound was evaluated for antagonistic effect on release of [3H]histamine from rat brain cortical slices with L-[3H]histidine at 0.3 uM; format: functional, tissue-based
Rattus norvegicus = organism: Rattus norvegicus; assay: Concentrations required for half-maximal inhibition of tritiated amine release from rat cortical slices; format: functional
Histamine H3 receptor [2] = target: T1, Histamine H3 receptor; assay: Compound was evaluated for antagonistic effect on release of [3H]histamine from rat brain cortical slices with L-[3H]histidine at 0.3 uM; format: functional, tissue-based
Histamine H3 receptor [3] = target: T1, Histamine H3 receptor; assay: The compound was evaluated for agonistic effect on release of [3H]histamine from rat brain cortical slices with L-[3H]histidine at 0.3 uM; format: functional, tissue-based
Mus musculus = assay: Compound was tested for in vivo in mice which produced a decrease in the brain level of N-tele-methylhistamine when administered orally; format: functional; conditions: po

T1 sequence (Q9QYN8 whole entry): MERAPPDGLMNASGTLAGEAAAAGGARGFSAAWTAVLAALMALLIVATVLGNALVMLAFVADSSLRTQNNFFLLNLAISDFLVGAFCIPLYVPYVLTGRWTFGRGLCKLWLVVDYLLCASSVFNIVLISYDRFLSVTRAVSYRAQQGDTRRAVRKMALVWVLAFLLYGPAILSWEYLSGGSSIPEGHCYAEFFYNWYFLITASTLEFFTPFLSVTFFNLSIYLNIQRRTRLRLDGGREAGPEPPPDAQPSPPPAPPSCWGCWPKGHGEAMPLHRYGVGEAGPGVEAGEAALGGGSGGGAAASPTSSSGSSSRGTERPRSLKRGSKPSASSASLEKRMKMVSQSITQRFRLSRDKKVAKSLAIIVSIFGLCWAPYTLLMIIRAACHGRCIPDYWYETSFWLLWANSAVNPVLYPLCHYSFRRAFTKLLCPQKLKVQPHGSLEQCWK

Ki (Histamine H3 receptor [1]) [nM] | Structure (SMILES) | ED50 (Mus musculus) [mg/kg] | other results
51 | C/N=C(\NC)SCCc1c[nH]cn1 |  | 
260 | c1nc(CCSC2=NCCN2)c[nH]1 |  | 
 | C/N=C(/SCCc1c[nH]cn1)N(C)C |  | EC50 (Rattus norvegicus): 1 nM; Ki (Histamine H3 receptor [2]): ≥ 500 nM
500 | CN(C)C(=N)SCCc1c[nH]cn1 |  | 
 | Br.CNC(=N)SCCc1c[nH]cn1 | 25 | EC50 (Histamine H3 receptor [3]): 15 nM
 | Br.N=C(N)SCCc1c[nH]cn1 [IMETIT DIHYDROBROMIDE] | ~1 | 
